{"source": "patent US7470821B2", "about": "“Aldolase-inhibiting aromatic compounds” (Valorisation-Recherche, Limited Partnership, priority 2003, dated 2008)", "key": {"rabbit muscle aldolase": {"molecular_target": "T1, rabbit muscle aldolase (Oryctolagus cuniculus, UniProt P00883)", "T1 sequence (P00883 1-364)": "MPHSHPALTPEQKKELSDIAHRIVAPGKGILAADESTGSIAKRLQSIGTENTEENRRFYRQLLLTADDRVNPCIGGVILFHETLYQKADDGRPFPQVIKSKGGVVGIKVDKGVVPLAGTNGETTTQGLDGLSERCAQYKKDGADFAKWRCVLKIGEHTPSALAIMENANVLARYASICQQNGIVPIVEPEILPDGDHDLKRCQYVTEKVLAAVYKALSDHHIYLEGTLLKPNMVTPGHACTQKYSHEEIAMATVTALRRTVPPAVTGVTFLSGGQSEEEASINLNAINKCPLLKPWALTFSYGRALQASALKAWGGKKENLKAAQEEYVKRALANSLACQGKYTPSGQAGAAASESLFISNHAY", "details": "cited from earlier work; for Ki: Blonski et al., 1997"}, "[1]": {"molecular_target": "T2, native aldolase from rabbit muscle (RM) (Oryctolagus cuniculus, UniProt P00883)", "T2 construct": "made in house", "T2 sequence (P00883 1-364)": "T1 sequence (P00883 1-364)", "test": "Aldolase activity by coupled enzyme test (TIM/GDH), inactivation and reactivation kinetics", "format": "biochemical", "description": "Aldolase activity was measured using a coupled enzyme test system: the triose-phosphate isomerase and glycerol-3-phosphate deshydrogenase (TIM/GDH) system, following oxidation of the NADH (Boehringer-Mannheim, France) at 340 nm, by means of a SAFAS spectrophotometer preheated to 25° C. Testing began with the addition of the substrate (Fru(1.6)P2; […] in final concentration), to complete an aldolase solution created in a triethanolamine buffer (TEA buffer) (100 Mm TEA/HCl; 50 mM NaCl; 1 mM EDTA, pH 7.6; ionic strength 0.15), 0.42 mM of NADH, and containing both enzyme systems (10 μg/mL of GDH and 1 μg/mL of TIM) for a final volume of 1 mL. The construction, overexpression and purification of recombinant aldolase were carried out in accordance with Morris A. J. et al., 1993 (J. Biol. Chem., 265:1095-1100) and Berthiaume L. et al., 1993 (J. Biol. Chem., 268:10826-10835).\nThe substrate cleavage rate was determined by measuring the decrease in absorbance/minute at 340 nm. The aldolase was dialyzed overnight at 4° C. against a TEA buffer prior to use. The protein concentration was determined by spectrophotometry, using ε280=0.91 mL.mg^−1.cm^−1 as an extinction coefficient. Subunit concentration was determined on the basis of a molecular weight of 159,000 for an aldolase tetramer. • Kinetic Method:\nIn the extreme situation where k−2 approaches zero, a reversible slow-binding inhibitor may resemble an irreversible one directed toward the active site. In this situation, the equation eqn.(3) is used for this type of inhibition (Meloche H. P., 1967, Biochemistry, 6:2273-2280). The semi-inactivation time of the enzyme (t1/2) is defined as a function of the mutual inhibitor concentration and is graphically represented by a straight line crossing the Y-axis at […] and crossing the X-axis at −1/Ki. • Experimental Protocol:\nNative aldolase (5 μM of subunits) is incubated in the presence of FHN-P (0.05-1 mM) in TEA buffer. Enzyme activity is analyzed as a function of time using 10 μl aliquot portions.\nInactivation kinetics follow pseudo-first-order kinetics, and kinetic parameters Ki and k2 are determined by using the equation eqn.(3). To determine the reactivation rate, aldolase (25 μM of subunits in the TEA buffer) is incubated with 500 μM of FHN-P until reaching 90% inactivation. Excess inhibitor is removed by ultrafiltration with a PM-30 Millipore membrane. The enzyme-inhibitor complex is incubated in the TEA buffer (15 μM of subunits at final concentration) containing hexitol-P2 (10 mM). Aliquot portions (10 μl) are removed at different times to measure aldolase activity.\nControls involve repeating the protocol without FHN-P. The reactivation process is analyzed as if it were a first-order reaction. • Monitored by UV-Visible Differential Spectroscopy."}, "[2]": {"details": "rabbit muscle aldolase, read-out: dissociation constant (or inhibition constant) Ki"}}, "note": "Like-named read-outs stand apart in the source and are kept apart here."}
{"compound": "O=P(O)(O)Oc1ccc(OP(=O)(O)O)cc1", "note": "[HQN-P2]", "values": [{"measurement": "Ki", "setting": "rabbit muscle aldolase; [2]", "value": "~135", "unit": "µM"}]}
{"compound": "O=P(O)(O)Oc1cccc(OP(=O)(O)O)c1", "note": "[RSN-P2]", "values": [{"measurement": "Ki", "setting": "rabbit muscle aldolase; [2]", "value": "~50", "unit": "µM"}]}
{"compound": "O=Cc1ccc(OP(=O)(O)O)cc1", "note": "[HBA-P, benzaldehyde-4-phosphate]", "values": [{"measurement": "Ki", "setting": "rabbit muscle aldolase; [2]", "value": "~500", "unit": "µM"}]}
{"compound": "O=Cc1ccc(OP(=O)(O)O)cc1O", "note": "[2-hydroxybenzaldehyde-4-phosphate]", "values": [{"measurement": "reduction of aldolase activity", "setting": "rabbit muscle aldolase; inhibitor concentration of around 200 μM", "value": 80, "unit": "%"}, {"measurement": "Ki", "setting": "rabbit muscle aldolase; reversible time-dependent inhibitor, read-out: global inhibition constant Ki*", "value": "35 ± 5", "unit": "µM"}]}
{"compound": "O=Cc1ccc2cc(O)ccc2c1O", "note": "[DHNA, 1,6-dihydroxy-2-naphthaldehyde, reference compound]", "values": [{"measurement": "aldolase inactivation (in words)", "setting": "[1]; 250 μM, same conditions as Table 1", "value": "totally inactive"}, {"measurement": "Specific activity", "setting": "[1]; RM 0.2 mg/mL, compound 250 μM, TEA buffer pH 7.6, 80 min incubation, RM alone 12.5 ± 0.5", "value": "12.5 ± 0.5", "unit": "Unit/mg"}]}
